Results from the NIST ThermoML archive (doi:10.1021/acs.jced.7b00347).
± gives the expanded uncertainty stated by the source.

Assay: mn = molality of the nth substance listed, in mol/kg
Details: for surface tension liquid-gas: Ring tensiometer; for electrical conductivity: 100 kPa, Liquid, Alternating current cell with electrodes

CCCCCCCC[NH+](CCO)CC(C)O.[Cl-] (stereo not given) + O
Details	electrical conductivity [S/m]	surface tension liquid-gas [mN/m]
303.15 K, m1 = 1.867e-05	–	53.53 ± 0.7
303.15 K, m1 = 1.87e-05	0.00091 ± 5.1e-05	–
303.15 K, m1 = 3.73e-05	0.00101 ± 5.6e-05	–
303.15 K, m1 = 3.733e-05	–	47.58 ± 0.63
303.15 K, m1 = 5.6e-05	0.0011 ± 6.1e-05	–
303.15 K, m1 = 7.47e-05	0.0012 ± 6.6e-05	–
303.15 K, m1 = 9.33e-05	0.00129 ± 8.2e-05	–
303.15 K, m1 = 9.334e-05	–	40.08 ± 0.54
303.15 K, m1 = 0.000112	0.00139 ± 8e-05	–
303.15 K, m1 = 0.0001307	0.00149 ± 8.3e-05	–
303.15 K, m1 = 0.0001493	0.00158 ± 8.8e-05	–
303.15 K, m1 = 0.000168	0.00168 ± 9.3e-05	–
303.15 K, m1 = 0.0001867	0.00177 ± 9.8e-05	34.17 ± 0.48
303.15 K, m1 = 0.0002053	0.00187 ± 0.00029	–
303.15 K, m1 = 0.000224	0.00197 ± 0.00011	–
303.15 K, m1 = 0.0002427	0.00206 ± 0.00012	–
303.15 K, m1 = 0.0002614	0.00216 ± 0.00012	–
303.15 K, m1 = 0.00028	0.00225 ± 0.00015	31.17 ± 0.45
303.15 K, m1 = 0.0002987	0.00235 ± 0.00033	–
303.15 K, m1 = 0.0003174	0.00245 ± 0.00014	–
303.15 K, m1 = 0.000336	0.00254 ± 0.00014	–
303.15 K, m1 = 0.0003472	–	29.47 ± 0.43
303.15 K, m1 = 0.0003547	0.00264 ± 0.00017	–
303.15 K, m1 = 0.0003734	0.00273 ± 0.00015	–
303.15 K, m1 = 0.000392	0.00283 ± 0.00017	–
303.15 K, m1 = 0.0004166	0.00292 ± 0.0016	–
303.15 K, m1 = 0.0004412	0.00302 ± 0.00017	–
303.15 K, m1 = 0.000448	–	29.31 ± 0.43
303.15 K, m1 = 0.0004658	0.00311 ± 0.00017	–
303.15 K, m1 = 0.0004905	0.00321 ± 0.00018	–
303.15 K, m1 = 0.0005151	0.0033 ± 0.00021	–
303.15 K, m1 = 0.0005397	0.0034 ± 0.00019	–
303.15 K, m1 = 0.0005643	0.00349 ± 0.00019	–
303.15 K, m1 = 0.0005889	0.00359 ± 0.0002	–
303.15 K, m1 = 0.0006135	0.00368 ± 0.0002	–
303.15 K, m1 = 0.0006381	0.00378 ± 0.00021	–
303.15 K, m1 = 0.0006627	0.00387 ± 0.00021	–
303.15 K, m1 = 0.0006873	0.00397 ± 0.00022	–
303.15 K, m1 = 0.0007119	0.00406 ± 0.00022	–
303.15 K, m1 = 0.0007365	0.00416 ± 0.00023	–
303.15 K, m1 = 0.0007611	0.00425 ± 0.00023	–
303.15 K, m1 = 0.0007857	0.00435 ± 0.00024	–
303.15 K, m1 = 0.0008104	0.00444 ± 0.00024	–
303.15 K, m1 = 0.000835	0.00454 ± 0.00025	–
303.15 K, m1 = 0.0008596	0.00463 ± 0.00026	–
303.15 K, m1 = 0.0008842	0.00473 ± 0.00026	–
303.15 K, m1 = 0.0009088	0.00482 ± 0.00027	–
303.15 K, m1 = 0.0009334	0.00492 ± 0.00027	28.79 ± 0.43
303.15 K, m1 = 0.001867	–	28.54 ± 0.42
303.15 K, m1 = 0.0028	–	28.22 ± 0.42
303.15 K, m1 = 0.003733	–	28.02 ± 0.42
308.15 K, m1 = 1.867e-05	–	51.25 ± 0.67
308.15 K, m1 = 1.87e-05	0.00111 ± 6.2e-05	–
308.15 K, m1 = 3.733e-05	–	45.75 ± 0.61
308.15 K, m1 = 4.28e-05	0.00126 ± 7.1e-05	–
308.15 K, m1 = 6.7e-05	0.00141 ± 8e-05	–
308.15 K, m1 = 9.11e-05	0.00156 ± 9e-05	–
308.15 K, m1 = 9.334e-05	–	38.42 ± 0.53
308.15 K, m1 = 0.0001152	0.00171 ± 9.9e-05	–
308.15 K, m1 = 0.0001394	0.00186 ± 0.00011	–
308.15 K, m1 = 0.0001635	0.00201 ± 0.00012	–
308.15 K, m1 = 0.0001867	–	32.93 ± 0.47
308.15 K, m1 = 0.0001877	0.00216 ± 0.00013	–
308.15 K, m1 = 0.0002118	0.00231 ± 0.00014	–
308.15 K, m1 = 0.000236	0.00246 ± 0.00015	–
308.15 K, m1 = 0.0002601	0.00261 ± 0.00016	–
308.15 K, m1 = 0.0002842	0.00276 ± 0.00017	–
308.15 K, m1 = 0.0002949	–	29.72 ± 0.44
308.15 K, m1 = 0.0003084	0.00291 ± 0.00018	–
308.15 K, m1 = 0.0003325	0.00306 ± 0.00019	–
308.15 K, m1 = 0.0003472	–	28.63 ± 0.43
308.15 K, m1 = 0.0003567	0.00321 ± 0.0002	–
308.15 K, m1 = 0.0003808	0.00336 ± 0.00021	28.46 ± 0.42
308.15 K, m1 = 0.0004099	0.00348 ± 0.00022	–
308.15 K, m1 = 0.000439	0.0036 ± 0.00023	–
308.15 K, m1 = 0.0004681	0.00373 ± 0.00023	–
308.15 K, m1 = 0.0004972	0.00385 ± 0.00024	–
308.15 K, m1 = 0.0005262	0.00397 ± 0.00025	–
308.15 K, m1 = 0.0005553	0.0041 ± 0.00026	–
308.15 K, m1 = 0.0005844	0.00422 ± 0.00026	–
308.15 K, m1 = 0.0006135	0.00434 ± 0.00026	–
308.15 K, m1 = 0.0006426	0.00447 ± 0.00027	–
308.15 K, m1 = 0.0006716	0.00459 ± 0.00028	–
308.15 K, m1 = 0.0007007	0.00471 ± 0.00028	–
308.15 K, m1 = 0.0007298	0.00483 ± 0.00029	–
308.15 K, m1 = 0.0007589	0.00496 ± 0.0003	–
308.15 K, m1 = 0.000788	0.00508 ± 0.0003	–
308.15 K, m1 = 0.0008171	0.0052 ± 0.00031	–
308.15 K, m1 = 0.0008461	0.00533 ± 0.00031	–
308.15 K, m1 = 0.0008752	0.00545 ± 0.00032	–
308.15 K, m1 = 0.0009043	0.00557 ± 0.00032	–
308.15 K, m1 = 0.0009334	0.0057 ± 0.00033	27.95 ± 0.42
308.15 K, m1 = 0.001867	–	27.78 ± 0.42
308.15 K, m1 = 0.0028	–	27.44 ± 0.41
308.15 K, m1 = 0.003733	–	27.36 ± 0.41
